Laboratory results reported in ChEMBL document CHEMBL1255249, “Urine bactericidal activity against Escherichia coli isolates exhibiting different resistance phenotypes/genotypes in an in vitro pharmacodynamic model simulating urine concentrations obtained after oral administration of a 400-milligram single dose of cefditoren-pivoxil” (Antimicrob Agents Chemother, 2008).
Converted amounts (≈) assume the structure as drawn. The source made the active and inactive calls. No cut-off for these calls is given here.

Columns and labels:
[1] = test system: Homo sapiens; assay: Drug level in human urine at […], po after 8 to 12 hrs; assay type: ADME, organism-based; design: route oral; settings: in vivo
[2] = test system: Escherichia coli; assay: Antimicrobial activity against Escherichia coli; assay type: functional
[3] = test system: Escherichia coli; assay: Antimicrobial activity against Escherichia coli S1 expressing penicillinase TEM-1; assay type: functional
[4] = test system: Escherichia coli; assay: Antimicrobial activity against Escherichia coli S2 expressing penicillinase TEM-1; assay type: functional
[5] = test system: Escherichia coli; assay: Antimicrobial activity against Escherichia coli S3 overexpressing penicillinase TEM-1; assay type: functional
[6] = test system: Escherichia coli; assay: Antimicrobial activity against Escherichia coli S4 expressing inhibitor-resistant TEM-34; assay type: functional
[7] = test system: Escherichia coli; assay: Antimicrobial activity against Escherichia coli S5 expressing extended-spectrum beta-lactamase TEM-116; assay type: functional
[8] = test system: Escherichia coli; assay: Antimicrobial activity against Escherichia coli S6 expressing extended-spectrum beta-lactamase TEM-116 and SHV-12; assay type: functional
[9] = test system: Escherichia coli; assay: Antimicrobial activity against Escherichia coli S7 expressing extended-spectrum beta-lactamase SHV-12 and penicillinase TEM-1; assay type: functional
[10] = test system: Homo sapiens; assay: Clearance in human at […], po after 3 hrs; assay type: ADME, organism-based; design: route oral; settings: in vivo
[11] = test system: Homo sapiens; assay: Clearance in human at […], po after 3 hrs to 5 hrs; assay type: ADME, organism-based; design: route oral; settings: in vivo
[12] = test system: Homo sapiens; assay: Clearance in human at […], po after 5 hrs to 12 hrs; assay type: ADME, organism-based; design: route oral; settings: in vivo
[13] = test system: Escherichia coli; assay: Antimicrobial activity against Escherichia coli S1 expressing penicillinase TEM-1 after 8 hrs; assay type: functional, organism-based
[14] = test system: Escherichia coli; assay: Antimicrobial activity against Escherichia coli S2 expressing penicillinase TEM-1 after 8 hrs; assay type: functional, organism-based
[15] = test system: Escherichia coli; assay: Antimicrobial activity against Escherichia coli S3 overexpressing penicillinase TEM-1 after 8 hrs; assay type: functional, organism-based
[16] = test system: Escherichia coli; assay: Antimicrobial activity against Escherichia coli S4 expressing inhibitor-resistant TEM-34 after 8 hrs; assay type: functional, organism-based
[17] = test system: Escherichia coli; assay: Antimicrobial activity against Escherichia coli S5 expressing extended-spectrum beta-lactamase TEM-116 after 8 hrs; assay type: functional, organism-based
[18] = test system: Escherichia coli; assay: Antimicrobial activity against Escherichia coli S6 expressing extended-spectrum beta-lactamase TEM-116 and SHV-12 after 8 hrs; assay type: functional, organism-based
[19] = test system: Escherichia coli; assay: Antimicrobial activity against Escherichia coli S7 expressing extended-spectrum beta-lactamase SHV-12 and penicillinase TEM-1 after 8 hrs; assay type: functional, organism-based
[20] = test system: Escherichia coli; assay: Antimicrobial activity against Escherichia coli S1 expressing penicillinase TEM-1 after 12 hrs; assay type: functional, organism-based
[21] = test system: Escherichia coli; assay: Antimicrobial activity against Escherichia coli S2 expressing penicillinase TEM-1after 12 hrs; assay type: functional, organism-based
[22] = test system: Escherichia coli; assay: Antimicrobial activity against Escherichia coli S3 overexpressing penicillinase TEM-1after 12 hrs; assay type: functional, organism-based
[23] = test system: Escherichia coli; assay: Antimicrobial activity against Escherichia coli S4 expressing inhibitor-resistant TEM-34 after 12 hrs; assay type: functional, organism-based
[24] = test system: Escherichia coli; assay: Antimicrobial activity against Escherichia coli S5 expressing extended-spectrum beta-lactamase TEM-116 after 12 hrs; assay type: functional, organism-based
[25] = test system: Escherichia coli; assay: Antimicrobial activity against Escherichia coli S6 expressing extended-spectrum beta-lactamase TEM-116 and SHV-12 after 12 hrs; assay type: functional, organism-based
[26] = test system: Escherichia coli; assay: Antimicrobial activity against Escherichia coli S7 expressing extended-spectrum beta-lactamase SHV-12 and penicillinase TEM-1 after 12 hrs; assay type: functional, organism-based
[27] = test system: Escherichia coli; assay: Antimicrobial activity against Escherichia coli S1 expressing penicillinase TEM-1 after 24 hrs; assay type: functional, organism-based
[28] = test system: Escherichia coli; assay: Antimicrobial activity against Escherichia coli S2 expressing penicillinase TEM-1after 24 hrs; assay type: functional, organism-based
[29] = test system: Escherichia coli; assay: Antimicrobial activity against Escherichia coli S3 overexpressing penicillinase TEM-1 after 24 hrs; assay type: functional, organism-based
[30] = test system: Escherichia coli; assay: Antimicrobial activity against Escherichia coli S4 expressing inhibitor-resistant TEM-34 after 24 hrs; assay type: functional, organism-based
[31] = test system: Escherichia coli; assay: Antimicrobial activity against Escherichia coli S5 expressing extended-spectrum beta-lactamase TEM-116 after 24 hrs; assay type: functional, organism-based
[32] = test system: Escherichia coli; assay: Antimicrobial activity against Escherichia coli S6 expressing extended-spectrum beta-lactamase TEM-116 and SHV-12 after 24 hrs; assay type: functional, organism-based
[33] = test system: Escherichia coli; assay: Antimicrobial activity against Escherichia coli S7 expressing extended-spectrum beta-lactamase SHV-12 and penicillinase TEM-1 after 24 hrs; assay type: functional, organism-based
[34] = test system: Escherichia coli; assay: Antimicrobial activity against Escherichia coli S1 expressing penicillinase TEM-1 assessed as log reduction in bacterial count after 4 to 24 hrs in presence of magnesium ions; assay type: functional
[35] = test system: Escherichia coli; assay: Antimicrobial activity against Escherichia coli S2 expressing penicillinase TEM-1 assessed as log reduction in bacterial count after 4 to 24 hrs in presence of magnesium ions; assay type: functional
[36] = test system: Escherichia coli; assay: Antimicrobial activity against Escherichia coli S4 expressing inhibitor-resistant TEM-34 assessed as log reduction in bacterial count upto 8 hrs; assay type: functional
[37] = test system: Escherichia coli; assay: Antimicrobial activity against Escherichia coli S3 overexpressing penicillinase TEM-1 assessed as log reduction in bacterial count upto 8 hrs; assay type: functional
[38] = test system: Escherichia coli; assay: Antimicrobial activity against Escherichia coli S1 expressing penicillinase TEM-1 assessed as log reduction in bacterial count after 4 to 24 hrs in presence of calcium ions; assay type: functional
[39] = test system: Escherichia coli; assay: Antimicrobial activity against Escherichia coli S2 expressing penicillinase TEM-1 assessed as log reduction in bacterial count after 4 to 24 hrs in presence of calcium ions; assay type: functional
[40] = test system: Escherichia coli; assay: Antimicrobial activity against Escherichia coli S2 expressing penicillinase TEM-1 assessed as log reduction in bacterial count upto 8 hrs; assay type: functional
[41] = test system: Escherichia coli; assay: Antimicrobial activity against Escherichia coli S1 expressing penicillinase TEM-1 assessed as log reduction in bacterial count upto 8 hrs; assay type: functional
[42] = test system: Escherichia coli; assay: Antimicrobial activity against Escherichia coli S5 expressing extended-spectrum beta-lactamase TEM-116 assessed as log reduction in bacterial count from 3 to 24 hrs; assay type: functional
[43] = test system: Escherichia coli; assay: Antimicrobial activity against Escherichia coli S5 expressing extended-spectrum beta-lactamase TEM-116 assessed as log reduction in bacterial count upto 8 hrs; assay type: functional
[44] = test system: Escherichia coli; assay: Antimicrobial activity against Escherichia coli S6 expressing extended-spectrum beta-lactamase TEM-116 and SHV-12assessed as log reduction in bacterial count upto 8 hrs; assay type: functional
[45] = test system: Escherichia coli; assay: Antimicrobial activity against Escherichia coli S7 expressing extended-spectrum beta-lactamase SHV-12 and penicillinase TEM-1 in presence of beta-lactamase inhibitor clavulanic acid; assay type: functional
[46] = test system: Escherichia coli; assay: Antimicrobial activity against Escherichia coli S6 expressing extended-spectrum beta-lactamase TEM-116 and SHV-12 in presence of beta-lactamase inhibitor clavulanic acid; assay type: functional
[47] = test system: Escherichia coli; assay: Antimicrobial activity against Escherichia coli S5 expressing extended-spectrum beta-lactamase TEM-116 in presence of beta-lactamase inhibitor clavulanic acid; assay type: functional
[48] = test system: Escherichia coli; assay: Antimicrobial activity against Escherichia coli S3 overexpressing penicillinase TEM-1 in presence of beta-lactamase inhibitor clavulanic acid; assay type: functional
[49] = test system: Escherichia coli; assay: Antimicrobial activity against Escherichia coli S4 expressing inhibitor-resistant TEM-34 in presence of beta-lactamase inhibitor clavulanic acid; assay type: functional
[50] = test system: Escherichia coli; assay: Antimicrobial activity against Escherichia coli S2 expressing penicillinase TEM-1 in presence of beta-lactamase inhibitor clavulanic acid; assay type: functional
[51] = test system: Escherichia coli; assay: Antimicrobial activity against Escherichia coli S1 expressing penicillinase TEM-1 in presence of beta-lactamase inhibitor clavulanic acid; assay type: functional

**Q.** `CO/N=C(\C(=O)N[C@@H]1C(=O)N2C(C(=O)OCOC(=O)C(C)(C)C)=C(/C=C\c3scnc3C)CS[C@H]12)c1csc(N)n1` [CEFDITOREN PIVOXIL] was tested. Which Drug uptake [1] did it give?
**A.** 12.7 µg/mL

**Q.** What about the MIC90 [2] of the same compound?
**A.** 0.5 µg/mL (≈ 0.805 µM)

**Q.** What about the MIC [3] of the same compound?
**A.** 0.25 µg/mL (≈ 0.403 µM)

**Q.** What about the MIC [4] of the same compound?
**A.** 1 µg/mL (≈ 1.61 µM)

**Q.** And the MIC [5]?
**A.** 1 µg/mL (≈ 1.61 µM)

**Q.** And the MIC [6]?
**A.** 2 µg/mL (≈ 3.22 µM)

**Q.** And the MIC [7]?
**A.** 0.5 µg/mL (≈ 0.805 µM)

**Q.** What about the MIC [8] of the same compound?
**A.** 8 µg/mL (≈ 12.9 µM)

**Q.** What about the MIC [9] of the same compound?
**A.** 16 µg/mL (≈ 25.8 µM)

**Q.** And the CL [10]?
**A.** 0.86 mL/min

**Q.** What about the CL [11] of the same compound?
**A.** 2.88 mL/min

**Q.** What about the CL [12] of the same compound?
**A.** 3.04 mL/min

**Q.** What about the Activity [13] of the same compound?
**A.** Active

**Q.** And the Activity [14]?
**A.** Active

**Q.** What about the Activity [15] of the same compound?
**A.** Active

**Q.** What about the Activity [16] of the same compound?
**A.** Active

**Q.** And the Activity [17]?
**A.** Active

**Q.** What about the Activity [18] of the same compound?
**A.** inactive

**Q.** And the Activity [19]?
**A.** inactive

**Q.** And the Activity [20]?
**A.** Active

**Q.** And the Activity [21]?
**A.** Active

**Q.** And the Activity [22]?
**A.** Active

**Q.** And the Activity [23]?
**A.** Active

**Q.** And the Activity [24]?
**A.** inactive

**Q.** What about the Activity [25] of the same compound?
**A.** inactive

**Q.** And the Activity [26]?
**A.** inactive

**Q.** What about the Activity [27] of the same compound?
**A.** Active

**Q.** And the Activity [28]?
**A.** Active

**Q.** And the Activity [29]?
**A.** Active

**Q.** What about the Activity [30] of the same compound?
**A.** Active

**Q.** What about the Activity [31] of the same compound?
**A.** inactive

**Q.** What about the Activity [32] of the same compound?
**A.** inactive

**Q.** What about the Activity [33] of the same compound?
**A.** inactive

**Q.** What about the FC [34] of the same compound?
**A.** >4

**Q.** What about the FC [35] of the same compound?
**A.** >4

**Q.** And the FC [36]?
**A.** >=6

**Q.** And the FC [37]?
**A.** >=5

**Q.** And the FC [38]?
**A.** >4

**Q.** What about the FC [39] of the same compound?
**A.** >4

**Q.** And the FC [40]?
**A.** >=4

**Q.** And the FC [41]?
**A.** >=3

**Q.** What about the FC [42] of the same compound?
**A.** >=3

**Q.** And the FC [43]?
**A.** >=7

**Q.** What about the FC [44] of the same compound?
**A.** >=8

**Q.** `CO/N=C(\C(=O)N[C@@H]1C(=O)N2C(C(=O)O)=C(COC(N)=O)CS[C@H]12)c1ccco1` [CEFUROXIME] was tested. Which MIC [3] did it give?
**A.** 4 µg/mL (≈ 9.43 µM)

**Q.** And the MIC [4]?
**A.** 4 µg/mL (≈ 9.43 µM)

**Q.** And the MIC [5]?
**A.** 8 µg/mL (≈ 18.9 µM)

**Q.** What about the MIC [6] of the same compound?
**A.** 4 µg/mL (≈ 9.43 µM)

**Q.** And the MIC [7]?
**A.** 32 µg/mL (≈ 75.4 µM)

**Q.** And the MIC [8]?
**A.** > 128 µg/mL

**Q.** And the MIC [9]?
**A.** 32 µg/mL (≈ 75.4 µM)

**Q.** What does the source list for `CC1(C)S[C@@H]2[C@H](NC(=O)[C@H](N)c3ccc(O)cc3)C(=O)N2[C@H]1C(=O)O` [AMOXICILLIN]?
**A.** MIC [3]: 8 µg/mL (≈ 21.9 µM); MIC [4]: 4 µg/mL (≈ 10.9 µM); MIC [5]: 32 µg/mL (≈ 87.6 µM); MIC [6]: 32 µg/mL (≈ 87.6 µM); MIC [7]: 4 µg/mL (≈ 10.9 µM); MIC [8]: 8 µg/mL (≈ 21.9 µM); MIC [9]: 16 µg/mL (≈ 43.8 µM); MIC [45]: 8 µg/mL; MIC [46]: 4 µg/mL; MIC [47]: 2 µg/mL; MIC [48]: 16 µg/mL; MIC [49]: 16 µg/mL; MIC [50]: 2 µg/mL; MIC [51]: 4 µg/mL

**Q.** How did the MIC [3] turn out when `O=C(O)c1cn(C2CC2)c2cc(N3CCNCC3)c(F)cc2c1=O` [CIPROFLOXACIN] was run?
**A.** 0.007 µg/mL (≈ 0.0211 µM)

**Q.** And the MIC [4]?
**A.** > 32 µg/mL

**Q.** And the MIC [9]?
**A.** > 32 µg/mL
